Experimental data reported in a melting point compilation (Tetko et al.; mined from patent text by program, amines drawn as free bases though some values may be those of a salt).

| SMILES | melting point [°C] |
| --- | --- |
| O=C(NC[C@H]1CN(c2ccc(N3CCN(C(=O)OCc4ccccc4)CC3)c(F)c2)C(=O)O1)C(F)F | 147 |
| Cc1nc(-c2ccccc2)c(NC(=O)Nc2ccccc2)s1 | 199 to 201 |
| CCCc1[nH]c2ccc(OCc3ccc4ccccc4n3)cc2c1CC | 91 |
| COC(=O)c1sc(C(=O)OC)c(OC)c1C | 61 to 64 |
| O=C(Nc1ccc(N2CCN(C(=O)Nc3ccc(OCCO)cc3C(F)(F)F)CC2)cc1)Nc1cccc2c1OCCO2 | 127 to 129 |
| CNC(=O)c1cccc2c(-c3ccccc3)c([N+](=O)[O-])oc12 | 167 to 169 |
| COc1cccc2oc(-c3ccc(Cl)cc3)cc(=O)c12 | 171 to 172 |
| CC(=O)NCC1CC1c1cccn2nc(C)nc12 (configuration not stated) | 116 to 118 |
| CCOC(=O)C1=C(C)Nc2ccnc(OC(C)C)c2C1c1cccs1 (configuration not stated) | 110 to 111 |
| CN(C)C(=O)c1ccccc1Sc1ccc(Br)cc1[N+](=O)[O-] | 112 to 114 |
| CNC(=S)N1CCc2[nH]cnc2C1c1cccs1 (configuration not stated) | 215 |
| O=c1[nH]c2cc(-n3cnc4c3CCCC4)c([N+](=O)[O-])cc2[nH]c1=O | > 300 |
| COC(=O)C1=C(C(=O)OC)C2(c3ccc(Cl)cc3)C=CC1O2 (configuration not stated) | 84 |
| Cc1nc(C=O)c2n1-c1ccc(Cl)cc1C(c1ccccc1Cl)=NC2 | 237 to 239 |
| C#CCN1N=C(c2ccc(OC)c(OC)c2)[C@@H]2CCCC[C@@H]2C1=O (relative stereo) | 118 to 121 |
| CC1(c2ccccc2)OC(C=Cc2ccc(C#N)cc2)=CC1=O (configuration not stated) | 187 to 188 |
| c1cnc(N2CCN(CCCCn3cccn3)CC2)nc1 | 124 |
| CCOCc1nc2c(N)nc3cc(OCc4cccc(C)c4)ccc3c2n1CC(C)C | 207 to 208 |
| CCC1(C)CC(C)(C)c2cc(O)ccc21 (configuration not stated) | 86 |
| CS(=O)(=O)c1ccc(-c2cnn(Cc3ccccc3)c(=O)c2-c2ccc(Cl)cc2)cc1 | 157 to 159 |
| OC1CSC(Oc2cccc(-c3ccnc(Cl)c3)c2)C(O)C1O (configuration not stated) | 207 |
| CCOCCc1ccc(OCC=NO)c(C)c1C | 102 to 105 |
| O=S1(=O)NCN(CCF)c2ccc(F)cc21 | 133 to 134 |
| O=C(CCCCCBr)c1c[nH]c2ccccc12 | 150 to 151 |
| CCCCN(C(=O)c1ccccc1)C(=NC(=O)c1ccccc1)Nc1ccc(C(N)=O)cc1 | 90 to 92 |
| Clc1cccc(C2=Nc3cccnc3Nc3ccccc32)c1 | 160 |

| SMILES | melting point [°C] |
| --- | --- |
| CN1C(C2CCCCC2)Nc2ccc(S(=O)(=O)N3CCOCC3)cc2S1(=O)=O (configuration not stated) | 243 to 245 |
| Cc1nc(-c2ccc(C(F)(F)F)cc2)sc1N | 146 to 148 |
| Nc1ccc(C(F)(F)F)cc1S(N)(=O)=O | 142 to 143 |
| CC(C)(C)C(=O)Nc1ccccc1CC1NCCc2ccccc21 (configuration not stated) | 168 |
| CCCCCCCCCCCc1coc(N)n1 | 55 to 58 |
| COc1nc2cc(Br)cc(CNC(=O)C(=O)O)c2nc1OC | > 300 |
| CCOC(=O)c1nc2cc(Br)ccc2c(O)c1C(=O)OCC | 234 |
| CCCn1c(-c2ccc(O)cc2)cnc1SC | 157 |
| COc1ccc(-c2nc(C(C)=O)c[nH]2)cc1 | 248 to 250 |
| O=Cc1cccc(-c2ccoc2)n1 | 59 to 61 |
| COC(=O)/C=C\C1C(C(=O)O)C1(C)C (configuration not stated) | 106 |
| COc1ccc2c(c1)NC1(CCN(C)CC1)c1cccn1-2 | 124 to 125 |
| CCCn1nc(C(C)C)c(C(=O)OCOC(=O)C(C)(C)C)c1Cc1ccc(-c2ccccc2-c2nnn[nH]2)cc1 | 62 to 67 |
| Nc1c(OCCCNCc2ccccc2)cccc1[N+](=O)[O-] | 66 to 67 |
| COC(=O)c1sc(Nc2ccc(Cl)cc2)nc1C | 172 to 173 |
| COc1ccc(C(=O)Nc2ccc(Cl)c(Cl)c2)cc1Nc1cccc(C(F)(F)F)c1 | 154 to 155 |
| Cc1cc(Oc2ncnc3ccn(C)c23)ccc1NC(=O)Nc1cccc(C(F)(F)F)c1 | 213 to 215 |
| O=C(Oc1ccc2ncccc2c1)c1ccccc1 | 77 to 79 |
| CCOC(=O)c1cc(OCc2ccccc2)c2nc(C)n(C)c2c1 | 152 |
| CC(=O)Nc1ccc(-n2ccnc2S(=O)Cc2ccccc2N(C)C)nc1 (configuration not stated) | 168 to 170 |
| COc1ccc(CCNC(=O)C(N)=O)cc1OC1CCCC1 | 175 to 176 |
| CC(C)(C)Sc1ccc(CC=CN(O)C(N)=O)s1 | 111 to 113 |
| CC(C)(C)NC(=O)[C@@H]1CCCN1C(=O)[C@@H](O)[C@@H](C(=O)[C@H](CC(N)=O)NCc1cnc2ccccc2n1)C(N)c1ccccc1 (some centres not stated) | 116 to 119 |
| N#Cc1cccc(Oc2ccccc2N)c1C#N | 132 |
| O=C([C@H]1CC[C@H](Nc2ncc3ncnc(Nc4ccc(F)c(Cl)c4)c3n2)CC1)N1CCOCC1 | 221 to 225 |
| CCc1nc(OC)c(NC(=O)N2CCN(c3cc(C)cc(C)c3)CC2)cc1C | 135 to 136 |

| SMILES | melting point [°C] |
| --- | --- |
| Cn1c(-c2ccccc2Cl)c2ccsc2nc1=O | 190 to 192 |
| Cc1ccc(-n2nc(C)c(NC(N)=S)c2C)cc1 | 240 to 241 |
| COC(=O)c1cccc([N+](=O)[O-])c1NCc1ccc(-c2ccccc2-c2nnnn2Cc2ccccc2)cc1 | 115 to 117 |
| Cc1nc(-n2cnn(CC3CC3)c2=O)sc1C(=O)NCc1cocn1 | 157 to 158 |
| COc1ccccc1Nc1c(C(=O)c2ccccc2)cnc2c(OC)cccc12 | 200 to 202 |
| CN(C)c1ccc(-c2cccc3c2C2(COc4cc5c(cc42)OCO5)C(=O)N3)cn1 (configuration not stated) | > 245 |
| Cc1cc(-c2ccc(C(F)(F)F)cc2)nc(-c2ccnc(-c3cccc(S(N)(=O)=O)c3)c2)c1 | 238 |
| c1cnc2cc[nH]c2c1 | 126 to 128 |
| CCC(c1ccc(O)cc1)c1ccc(O)cc1 | 131 to 133 |
| Cn1cccc1CCNC(=O)Cn1c(-c2ccc(Cl)cc2)nc2cccnc21 | 171 to 172 |
| Cc1cc(=O)c2ccc(OCCCN3CCC(NC(=O)c4ccccc4[N+](=O)[O-])CC3)cc2o1 | 185 to 187 |
| CC(=O)c1c(C)sc(-c2ccncc2)c1C | 80 to 81 |
| Cc1nc(-c2ccncc2)sc1-c1cccnc1 | 113 to 114 |
| O=P(O)(O)C(O)(CCc1ccc(Cl)cc1)P(=O)(O)O | 201 |
| CCSc1c(Cl)nc(Cl)nc1Cl | 62 to 64 |
| CC(CCc1ccc2c(c1)OCO2)NCC(O)c1cc(C(N)=O)cs1 (configuration not stated) | 112 to 114 |
| O=C(NC(P(=O)(O)O)P(=O)(O)O)c1cc2ccccc2s1 | 234 to 238 |
| CCCCN1CNC(=O)NC1=O | 205 to 207 |
| O=C(NCCCC[C@@H](C(=O)O)n1c2ccccc2c2ccccc21)c1ccc(C(=O)c2ccccc2)cc1 | 97 to 98 |
| CN1CCN(c2ccc(F)cc2C=C2CCCN(CCc3ccc(Cl)cc3)C2=O)CC1 | 88 to 90 |
| CS(=O)(=O)c1cc2c(cc1O)CCNCC2 | 241 to 242 |
| CN(C)C(=O)N(COCCCl)c1ccc(C(F)(F)F)cc1 | 39 |
| CCOc1cc(OCCCc2cn(-c3ccc(C(F)(F)F)cn3)nc2OC)ccc1CCC(=O)O | 145 to 146 |
| Cc1ccc2c(c1)CC(=O)N2c1c(F)cccc1Cl | 137 to 140 |
| CC(C)N[C@H](C(=O)NCCCC(c1ccc(F)cc1)c1ccc(F)cc1)C(C)C | 72 to 80 |
| NNC(=O)Nc1nccs1 | 166 to 167 |

| SMILES | melting point [°C] |
| --- | --- |
| Cn1ncc(/C=C/C(=O)Nc2ccc(CCc3cscn3)cc2)c1-c1ccc(F)cc1 | 211 to 212 |
| COc1ccc(-c2cc(-c3c(-c4ccccn4)nc4ccccn34)ccn2)cc1 | 222 |
| O=C(Nc1ccc2[nH]c(=O)oc2c1)C(=O)N1CCC(Cc2ccc(F)c(F)c2)CC1 | 233 |
| Clc1ccc2c(c1)C(c1ccccc1)=NCc1nnc(Cc3ccccc3)n1-2 | 190 to 192 |
| CCOC(=O)c1ccc(C=C(CCCc2ccc(C(=O)O)cc2)Cn2ccnc2)cc1 | 167 to 170 |
| O=S(=O)(O)c1ccc(Nc2cnnc3cc(Cl)ccc23)cc1 | > 280 |
| CCn1c(=S)sc2c(=N)n(NC(=O)c3ccco3)cnc21 | 226 |
| COc1ccc(-c2ccc(C(N)=O)cc2)cc1-c1ccc2nonc2c1 | 235 to 255 |
| CNC(=S)C1(c2cccnc2)CCCCC1=CCOc1ccc([N+](=O)[O-])cc1 (configuration not stated) | 201 to 202 |
| CC(=O)N1CCC(C(=O)N(CCCN2CC3CN(C(=O)c4cccnc4N4CCC4)CC3C2)c2ccc(C)c(Cl)c2)CC1 (configuration not stated) | 72.9 to 74 |
| CC(CN1CCCC1)N1c2ccccc2Sc2ccc(C(=O)NCc3c(Cl)cccc3Cl)cc21 (racemic) | 138 |
| CC(C)Oc1ccccc1-c1ccoc1C(=O)NNC(=O)c1ccc(O)c(C#N)c1 | 128 to 130 |
| C=CCN(CC=C)C(=O)n1cnc(S(=O)(=O)CC)n1 | 39 to 42 |
| NCC1Cc2cccc(Nc3cc(Cl)cc(Cl)c3)c2O1 (configuration not stated) | > 250 |
| O=c1c2cccnc2c(-c2cccc([N+](=O)[O-])c2)nn1-c1ccccc1 | 167 |
| COc1c(C#C[Si](C)(C)C)cc(-n2ccc(=O)[nH]c2=O)cc1-c1ccc2cc(NS(C)(=O)=O)ccc2c1 | 175 to 178 |
| O=c1[nH]cnc2c1cnn2-c1ncc(C(F)(F)F)cc1Cl | 331 |
| CCOC(=O)/C=C/c1cn(Cc2ccc(OCc3ccccc3)cc2)nc1-c1ccc(F)cc1 | 113 to 114 |
| Cc1ccnc2c1C(=O)CC(c1cc(Cl)ccc1Cl)C2 (configuration not stated) | 116 to 117 |
| Cc1cc(O)c(C)c(C)c1OCc1ccccc1 | 101 to 103 |
| Cc1cn(NCCCc2ccncc2F)c2ccc(OC(=O)NN3CCc4ccccc4C3)cc12 | 157 to 160 |
| Cc1c(C)c2c(c(C)c1NC=O)CC(C)(C)O2 | 177 to 179 |
| CC1(c2ccccc2)C(=O)Nc2cc(Br)cc(Br)c2C1=O (configuration not stated) | 256 to 257 |
| CC(=O)C1=C(O)C(=C(C)Nc2ccc(O)cc2)C(=O)OC1=O | 223 to 225 |
